One may read the IC50 as the point on the concentration scale where inhibition reaches its midpoint. Read a low IC50 as greater potency in that assay.

Here are results for 1 molecule from patent publication US10266549B2, “ULK1 inhibitors and methods using same” (SALK INSTITUTE FOR BIOLOGICAL STUDIES, priority 2014, dated 2019).

SMILES strings stand for the structures.

In one test the test system is A549 lung cancer cells. As to the kind of experiment: AnnexinV apoptosis analysis in A549 cells with mTOR inhibitor. Type of test: cell-based. Here is the method: (§1) A549 cells (ATCC #CCL185) and MEFs were seeded at a concentration of 2.5×10^5 cells/mL (i.e., 750,000 cells per 6 cm dish), grown overnight (18 hrs) and treated as indicted in the figure legends. Unless otherwise indicated, “starvation” is EBSS and “control” is DMEM with full serum for indicated timepoints. Samples for western blot were washed once in 1× ice cold PBS and lysed in boiling SDS lysis buffer (10 mM Tris […], 100 mM NaCl, 1% SDS). After trituration, lysates were equilibrated for protein levels using the BCA method (Pierce) and resolved on 8 to 15% SDS-PAGE gels, depending on the size of the protein. PVDF membranes were probed with indicated antibodies overnight according to the manufacturers instructions.
For flow cytometry analysis, cells were collected at the appropriate time point, washed once in PBS, trypsinized and pelleted. For Annexin V staining, cells were washed in 1× Annexin V buffer and treated as described by the Annexin V staining protocol (BD Pharmingen, San Diego, Calif.). Briefly, cells were resuspended in Annexin V buffer to a concentration of one million per mL, 100,000 cells were then stained with 5 μL of phycoerythrin (PE)-conjugated Annexin V antibody (BD Pharmingen, San Diego, Calif.) and 5 μL of 7-amino-actinomycin D (7AAD) and then incubated at room temperature for 15 minutes. 400 μL of Annexin V buffer was then added to each sample with gentle mixing. Stained cells were analyzed using a FACScan flow cytometer (Becton Dickinson, San Jose, Calif.). Flow cytometry data was analyzed using FlowJo 8.6 software (Tree Star Inc., Ashland, Oreg.).
There has been great interest in the role of autophagy in the survival of tumor cells, particular tumor cells faced with metabolic stress from chemotherapies or targeted therapeutics. We next examined whether compound 14 would promote apoptosis in tumor cells similar to the MEFs, selectively under conditions in which autophagy is actively engaged. […] Given that mTOR activity is a dominant regulator of ULK1 activity, and we previously noted that treatment of cells with mTOR catalytic inhibitors was sufficient to induce ULK1 activity, we examined the effect of adding in the ULK1 inhibitor in the context of treatment with mTOR catalytic inhibitors. Using a cell line well-established to be sensitive to mTORC1 inhibition, A549 lung cancer cells, we treated with escalating doses of ULK1 inhibitor while keeping a constant cytostatic growth arrest-inducing 1 micromolar dose of the mTOR catalytic inhibitor AZD8055. We observed that 5 μM compound 14 in combination with AZD8055 triggered apoptosis in 22% of A549 cells compared to 9% of the 5 μM compound 14 alone or 6% of those cells treated with AZD8055 alone. […]

In another test the target is WT ULK1 (Homo sapiens (Human), UniProt O75385). The test is described as follows: in vitro kinase assay, WT ULK1, MBP substrate, radiolabeled ATP. Format: biochemical. The conditions noted are these: 10-μM MBP, 30-μM γ-32P-ATP; triplicate, ten-dose, 3-fold serial dilution from 1 μM. Here is the method: (§2) WT ULK1 (left) and WT ULK2 (right) were assayed using 10-μM MBP in the presence of 30-μM radiolabeled γ-^32P-ATP.
(§3) To further examine how ULK1 regulates autophagy, we sought to identify small molecule ATP competitive kinase inhibitors of ULK1. Screening a library of chemical compounds for inhibitors of ULK1 kinase activity in vitro, we identified a lead compound that was further elaborated through a medicinal chemistry effort to produce compound 14. […] To further characterize the ability of compound 14 and related derivatives to inhibit ULK1 in cells, we tested the ability of these compounds to inhibit the phosphorylation of Vps34 Ser249 when epitope-tagged Vps34 was co-expressed in HEK293T cells with a wild-type ULK1 cDNA. Screening 40 compounds, we found compound 14 inhibited P-Vps34 on overexpressed Vps34 when used at ˜5 μM (FIG. 7B). We next examined the sensitivity of phosphorylation of Vps34 Serine 249 versus Beclin Serine 15 to two structurally distinct ULK1 inhibitors, when cDNAs bearing each were introduced into HEK293T cells. […] (FIG. 11A).

The subject of a further test is MEFs. As to the kind of experiment: AnnexinV apoptosis analysis in nutrient-deprived MEFs. Type of test: cell-based, mouse. Here is the method:
as §1
For flow cytometry analysis, cells were collected at the appropriate time point, washed once in PBS, trypsinized and pelleted. For Annexin V staining, cells were washed in 1× Annexin V buffer and treated as described by the Annexin V staining protocol (BD Pharmingen, San Diego, Calif.). […] Stained cells were analyzed using a FACScan flow cytometer (Becton Dickinson, San Jose, Calif.). Flow cytometry data was analyzed using FlowJo 8.6 software (Tree Star Inc., Ashland, Oreg.). […]

The subject of another test is ULK1. The test is described as follows: phosphorylation of ULK1 substrates (Vps34 Ser249, Beclin Ser15) in HEK293T cells co-expressing wild-type ULK1. Type of test: cell-based, human. Here is the method: At 24-hr post-transfection, cells were treated with a panel of putative ULK1 competitive inhibitors in a dose-response manner (1, 10, 50 μM). Cellular lysates were isolated after 1 hr of treatment and immunoblotted with the indicated antibodies. Representative results for compound 14 are shown.
FIG. 7C: HEK293T cells were transfected with WT or KI ULK1 and WT Vps34 (left) or WT Flag-tagged Beclin1 (WT Beclin1; right). At 24-hr post-transfection, cells were treated with compound 14 (10 μM) or DMSO. Cellular lysates were isolated after 1 hr of treatment and immunoblotted with the indicated antibodies.
For transient expression in HEK293T cells were transfected with 2 ug each DNA plasmid per 6 cm dish using Lipofectamine 2000 (Invitrogen) following the manufacturer's protocol. Cells were harvested 24 hours after transfection and rinsed once with ice-cold PBS and lysed in boiling SDS lysis buffer (10 mM Tris pH7.5, 100 mM NaCl, 1% SDS). After trituration, lysates were equilibrated for protein levels using the BCA method (Pierce) and resolved on 8 to 15% SDS-PAGE Phos-Tag™ gels according to the manufacturer's instructions. Briefly, Phos-Tag™ AAL-107 (HARD #304-93521) was added to SDS-PAGE acryamide mixture at a final concentration of 50 μM along with MnCl2 at a final concentration of 100 μM. […]

A further test deals with WT ULK2 (Homo sapiens (Human), UniProt Q8IYT8). The test is described as follows: in vitro kinase assay, WT ULK2, MBP substrate, radiolabeled ATP. Format: biochemical. The conditions noted are these: 10-μM MBP, 30-μM γ-32P-ATP; triplicate, ten-dose, 3-fold serial dilution from 1 μM. Here is the method: as §2, §3
Sequence of WT ULK2 (Q8IYT8 whole entry): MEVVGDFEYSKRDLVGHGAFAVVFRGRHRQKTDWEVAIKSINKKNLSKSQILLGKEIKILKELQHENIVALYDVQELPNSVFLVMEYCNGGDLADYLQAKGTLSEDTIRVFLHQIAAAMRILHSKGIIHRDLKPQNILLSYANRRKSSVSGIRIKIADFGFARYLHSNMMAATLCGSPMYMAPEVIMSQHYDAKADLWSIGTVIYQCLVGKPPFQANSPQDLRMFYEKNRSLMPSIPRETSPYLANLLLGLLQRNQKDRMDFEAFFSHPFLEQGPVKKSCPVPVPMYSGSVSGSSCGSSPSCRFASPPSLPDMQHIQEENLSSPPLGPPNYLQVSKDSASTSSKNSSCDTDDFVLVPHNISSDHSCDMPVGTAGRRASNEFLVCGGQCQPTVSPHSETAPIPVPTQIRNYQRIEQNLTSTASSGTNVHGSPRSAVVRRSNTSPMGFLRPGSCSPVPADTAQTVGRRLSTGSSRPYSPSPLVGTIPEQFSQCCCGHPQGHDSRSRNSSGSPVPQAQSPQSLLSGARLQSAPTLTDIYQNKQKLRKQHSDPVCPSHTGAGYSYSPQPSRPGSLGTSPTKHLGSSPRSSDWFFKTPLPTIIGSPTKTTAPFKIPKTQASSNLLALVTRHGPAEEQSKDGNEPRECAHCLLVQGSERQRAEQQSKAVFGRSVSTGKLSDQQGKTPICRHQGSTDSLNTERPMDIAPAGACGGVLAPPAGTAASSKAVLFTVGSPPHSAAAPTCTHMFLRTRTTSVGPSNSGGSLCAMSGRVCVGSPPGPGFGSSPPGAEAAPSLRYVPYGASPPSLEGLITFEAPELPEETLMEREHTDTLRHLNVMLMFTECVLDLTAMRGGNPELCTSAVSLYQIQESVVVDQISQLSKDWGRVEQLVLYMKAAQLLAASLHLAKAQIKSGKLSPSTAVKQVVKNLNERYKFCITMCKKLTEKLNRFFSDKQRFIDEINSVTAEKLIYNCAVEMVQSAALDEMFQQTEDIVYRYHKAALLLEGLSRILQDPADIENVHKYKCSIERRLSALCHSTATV

Sequence of WT ULK1 (O75385 whole entry): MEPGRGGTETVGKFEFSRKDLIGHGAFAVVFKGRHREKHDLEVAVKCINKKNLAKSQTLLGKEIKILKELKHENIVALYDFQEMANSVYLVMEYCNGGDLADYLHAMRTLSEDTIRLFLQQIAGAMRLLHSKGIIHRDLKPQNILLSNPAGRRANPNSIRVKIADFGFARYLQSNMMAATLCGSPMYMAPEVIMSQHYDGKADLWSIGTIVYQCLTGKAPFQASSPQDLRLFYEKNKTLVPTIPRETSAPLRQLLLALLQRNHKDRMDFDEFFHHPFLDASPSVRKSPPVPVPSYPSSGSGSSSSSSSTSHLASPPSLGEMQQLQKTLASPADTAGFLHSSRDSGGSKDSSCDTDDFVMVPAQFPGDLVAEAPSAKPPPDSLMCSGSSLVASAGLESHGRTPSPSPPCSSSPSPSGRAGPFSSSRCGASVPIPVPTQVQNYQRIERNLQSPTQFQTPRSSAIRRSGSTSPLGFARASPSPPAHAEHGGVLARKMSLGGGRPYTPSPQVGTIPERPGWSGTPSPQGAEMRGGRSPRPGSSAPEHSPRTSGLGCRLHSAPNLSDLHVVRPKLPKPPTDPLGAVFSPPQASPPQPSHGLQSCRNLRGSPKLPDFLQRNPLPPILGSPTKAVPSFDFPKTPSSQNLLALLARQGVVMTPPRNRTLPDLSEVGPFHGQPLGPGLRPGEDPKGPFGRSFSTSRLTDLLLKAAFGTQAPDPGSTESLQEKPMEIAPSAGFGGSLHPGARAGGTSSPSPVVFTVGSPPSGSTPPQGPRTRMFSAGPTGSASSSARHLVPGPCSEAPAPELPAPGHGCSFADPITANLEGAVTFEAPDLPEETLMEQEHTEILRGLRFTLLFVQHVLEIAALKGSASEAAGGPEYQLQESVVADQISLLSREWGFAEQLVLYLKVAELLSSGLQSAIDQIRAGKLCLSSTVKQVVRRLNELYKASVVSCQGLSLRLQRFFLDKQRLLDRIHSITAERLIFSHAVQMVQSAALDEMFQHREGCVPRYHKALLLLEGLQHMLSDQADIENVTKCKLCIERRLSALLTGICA

Consider `CNC(=O)c1ccccc1Nc1nc(Nc2cc(OC)c(OC)c(OC)c2)ncc1Br` [compound 14, 2-(5-bromo-2-(3,4,5-trimethoxyphenylamino)pyrimidin-4-ylamino)-N-methylbenzamide], for which the “apoptosis, % of A549 cells” value came to 9% in the test on A549 lung cancer cells (5 μM compound 14 alone) and 22% in the test with A549 lung cancer cells (5 μM compound 14 in combination with 1 micromolar AZD8055). The “induction of Annexin-V+ apoptotic A549 cells” value with A549 lung cancer cells (10 or 20 μM compound 14 with AZD8055) is on record as “even more dramatically heightened”. The IC50 against WT ULK1 turned out to be 0.107 µM; at WT ULK2, 0.711 µM. For the same molecule, the AnnexinV positive cells in the test on MEFs (MEFs, 24 h after amino-acid deprivation) amounted to 50%. Further, the cell death entry with MEFs (glucose-deprived MEFs) is “promoted cell death”. In addition, the “inhibition of Beclin Ser15 and Vps34 Ser249 phosphorylation” value in the test on ULK1 (10 μM, 1 hr) was “inhibited Beclin Ser15 and Vps34 Ser249 to comparable extents”. In the test on ULK1 (WT ULK1 + Flag-Vps34, 1 hr treatment), the “concentration inhibiting P-Vps34 on overexpressed Vps34” value is roughly 5 µM.
